Measurements from patent US20210046071A1, “TETRACYCLIC COMPOUNDS AND THEIR SALTS, COMPOSITIONS, AND METHODS FOR THEIR USE” (Senhwa Biosciences, Inc., priority 2019, published 2021).
Read-outs that look alike come from different tables or passages of the source.

Assay: Pharmacokinetic studies in human, Compound I in plasma by LC/MS/MS
Type: in vivo
Settings: human, plasma, iv; for AUC(0-inf): read-out: AUC∞; for half-life: read-out: T1/2 (converted)
Method: Pharmacokinetic studies and dose escalation studies were conducted in adult patients with metastatic, recurrent, locally, advanced, or unresectable solid malignancy (patients with histologically and/or cytologically confirmed solid malignancy), who received prior anti-cancer treatment(s) until disease progression, at 10 different dose levels of Compound I. Groups 1-7 were administered intravenously on days 1 and 8 of a 4-week cycle at 50, 100, 150, 200, 250, 325, and 475 mg/m^2 (lyophilized formulation), respectively. Groups 8-10 were administered intravenously on days 1,8, and 15 of a 4-week cycle at 325, 475, and 650 mg/m^2 (lyophilized formulation), respectively. Each patient received each dose over 1 hour by IV infusion on days described above.
They lyophilized formulation was reconstituted with 5% glucose in sterile water, or similar biologically acceptable fluid, for IV infusion.
For patients in Groups 1-7, blood samples were typically collected at Day 1 at pre-infusion (t=−1 h), during infusion at about 30 minutes (t=−0.5 h), immediately post infusion (t=0 h), 30 min post-infusion, 1 h post-infusion, 2 h post-infusion, 4 h post-infusion, and 6 h post-infusion, as well as at about 24 h post-infusion, 48 h post-infusion, and 72 h post-infusion. On Day 8, blood samples were typically collected at pre-infusion (t=−1 h), during infusion at about 30 minutes (t=−0.5 h), immediately post infusion (t=0 h), 30 min post-infusion, 1 h post-infusion, 2 h post-infusion, 4 h post-infusion, and 6 h post-infusion, as well as at about 24 h post-infusion, and 168 h post-infusion (Day 15).
For patients in Groups 8-10, blood samples were typically collected at Day 1 at pre-infusion (t=−1 h), during infusion at about 30 minutes (t=−0.5 h), immediately post infusion (t=0 h), 30 min post-infusion, 1 h post-infusion, 2 h post-infusion, 4 h post-infusion, and 6 h post-infusion, as well as at about 24 h post-infusion, 48 h post-infusion, and 72 h post-infusion. On Day 8, blood samples were typically collected at pre-infusion (t=−1 h). On Day 15, blood samples were typically collected at pre-infusion (t=−1 h), during infusion at about 30 minutes (t=−0.5 h), immediately post infusion (t=0 h), 30 min post-infusion, 1 h post-infusion, 2 h post-infusion, 4 h post-infusion, and 6 h post-infusion, as well as at about 24 h post-infusion, and 168 h post-infusion (Day 22).
Levels of Compound I in patient's plasma were analyzed by liquid chromatography tandem mass spectrometry (LC/MS/MS) assay. Experimental procedures of the validated methods are summarized below. The pharmacokinetic parameters after first dose and second dose for Groups 1-7 and after first dose and third dose for Groups 8-10 are shown in Tables 2A-2J. In Tables 2A-2J: SD=standard deviation; Cmax=maximum observed concentration; D=dose; Tmax=time to maximum observed concentration; T1/2=elimination half-life; Vd=volume of distribution; CL=drug clearance; and AUC∞=area under the concentration-time curve from time zero to infinity (total exposure).
The concentrations of Compound I in human plasma samples collected from subjects of as discussed above. Compound I concentrations in plasma samples were measured based on 9 levels of calibration standards from 5.00 to 5000 ng/mL, and 3 levels of QC at 15.0 ng/mL (low), 2500 ng/mL (mid), and 4000 ng/mL (high).
Two reference standard master stock solutions of Compound I were prepared by dissolving the Compound 1 reference standard with 50:50:0.1 ACN:diH2O:FA (v/v/v) and sonicating for 7 minutes (diH2O=deionized water). The resulting solutions were further diluted with 50:50:0.1 ACN:diH2O:FA (v/v/v) into a series of working stock solutions (WSS) for spiking of Compound I calibration standards and QC samples. The master stock solutions were prepared fresh on the day of assay, or stored at nominal 2° C. to 8° C. for later use. Master stock solutions were used within the stability timeframe. […]

[1] = 150 mg/m2, Group 3, 150 mg/m^2 IV, Day 8, mean, n = 4
[2] = 200 mg/m2, Group 4, 200 mg/m^2 IV, Day 1, mean, n = 4
[3] = 200 mg/m2, Group 4, 200 mg/m^2 IV, Day 8, mean, n = 4
[4] = 250 mg/m2, Group 5, 250 mg/m^2 IV, Day 1, mean, n = 3
[5] = 250 mg/m2, Group 5, 250 mg/m^2 IV, Day 8, mean, n = 3
[6] = 325 mg/m2, Group 6, 325 mg/m^2 IV, Day 1, mean, n = 3
[7] = 325 mg/m2, Group 6, 325 mg/m^2 IV, Day 8, mean, n = 3
[8] = 325 mg/m2, Group 8, 325 mg/m^2 IV, Day 1, mean, n = 3
[9] = 325 mg/m2, Group 8, 325 mg/m^2 IV, Day 1, mean, n = 4
[10] = 325 mg/m2, Group 8, 325 mg/m^2 IV, Day 15, mean, n = 4
[11] = 475 mg/m2, Group 7, 475 mg/m^2 IV, Day 1, mean, n = 3
[12] = 475 mg/m2, Group 7, 475 mg/m^2 IV, Day 8, mean, n = 3
[13] = 475 mg/m2, Group 9, 475 mg/m^2 IV, Day 1, mean, n = 5
[14] = 475 mg/m2, Group 9, 475 mg/m^2 IV, Day 15, mean, n = 4
[15] = 475 mg/m2, Group 9, 475 mg/m^2 IV, Day 15, mean, n = 5
[16] = 650 mg/m2, Group 10, 650 mg/m^2 IV, Day 1, mean, n = 5
[17] = 650 mg/m2, Group 10, 650 mg/m^2 IV, Day 15, mean, n = 5

Molecule Cc1cnc(CNC(=O)c2c(=O)c3ccc(N4CCCN(C)CC4)nc3n3c2sc2ccccc23)cn1 [Compound I, 2-(4-Methyl-[1,4]diazepan-1-yl)-5-oxo-5H-7-thia-1,11b-diaza-benzo[c]fluorene-6-carboxylic acid (5-methyl-pyrazin-2-ylmethyl)-amide] has a Tmax [1] of 0.646 h, a Vd [1] of 939 L and a clearance [1] of 203 mL/min. The AUC(0-inf) [1] was 21800 ng·h/mL, the half-life [1] was 59.1 h and the Cmax [2] was 8950 ng/mL. The Tmax [2] was 0.854 h, the Vd [2] was 1700 L and the clearance [2] was 505 mL/min. The AUC(0-inf) [2] was 15100 ng·h/mL, the half-life [2] was 41.9 h and the Cmax [3] was 1180 ng/mL. It also gave a Tmax [3] of 1.3 h, a Vd [3] of 2050 L and a clearance [3] of 470 mL/min. For the same molecule, the AUC(0-inf) [3] was 16200 ng·h/mL, the half-life [3] was 53.5 h and the Cmax [4] was 1410 ng/mL. The Tmax [4] was 1.19 h, the Vd [4] was 1450 L and the clearance [4] was 348 mL/min. The AUC(0-inf) [4] was 20900 ng·h/mL, the half-life [4] was 47.9 h and the Cmax [5] was 771 ng/mL. It also gave a Tmax [5] of 1.2 h, a Vd [5] of 2160 L and a clearance [5] of 258 mL/min. It also gave an AUC(0-inf) [5] of 28100 ng·h/mL, a half-life [5] of 96.9 h and a Cmax [6] of 1070 ng/mL. It also gave a Tmax [6] of 1.02 h, a Vd [6] of 1930 L and a clearance [6] of 390 mL/min. For the same molecule, the AUC(0-inf) [6] was 23500 ng·h/mL, the half-life [6] was 66.9 h and the Cmax [7] was 1040 ng/mL. The Tmax [7] was 0.672 h, the Vd [7] was 2220 L and the clearance [7] was 307 mL/min. The AUC(0-inf) [7] was 29000 ng·h/mL, the half-life [7] was 86.5 h and the Vd [8] was 2320 L. For the same molecule, the clearance [8] was 322 mL/min, the AUC(0-inf) [8] was 29100 ng·h/mL and the half-life [8] was 83.4 h. It also gave a Cmax [9] of 1140 ng/mL, a Tmax [9] of 0.767 h and a Cmax [10] of 21100 ng/mL. The Tmax [10] was 0.783 h, the Cmax [11] was 1940 ng/mL and the Tmax [11] was 0.861 h. The Vd [11] was 2590 L, the clearance [11] was 418 mL/min and the AUC(0-inf) [11] was 36200 ng·h/mL. For the same molecule, the half-life [11] was 81.8 h, the Cmax [12] was 1710 ng/mL and the Tmax [12] was 0.678 h. It also gave a Vd [12] of 2430 L, a clearance [12] of 482 mL/min and an AUC(0-inf) [12] of 35400 ng·h/mL. It also gave a half-life [12] of 73.8 h, a Cmax [13] of 1750 ng/mL and a Tmax [13] of 1.18 h. The Vd [13] was 2320 L, the clearance [13] was 460 mL/min and the AUC(0-inf) [13] was 36300 ng·h/mL. The half-life [13] was 61.5 h, the Vd [14] was 2570 L and the clearance [14] was 532 mL/min. For the same molecule, the AUC(0-inf) [14] was 32500 ng·h/mL, the half-life [14] was 59 h and the Cmax [15] was 2870 ng/mL. For the same molecule, the Tmax [15] was 0.737 h, the Cmax [16] was 3080 ng/mL and the Tmax [16] was 0.81 h. It also gave a Vd [16] of 3700 L, an AUC(0-inf) [16] of 57500 ng·h/mL and a half-life [16] of 122 h. The Cmax [17] was 4170 ng/mL, the Tmax [17] was 1.05 h and the Vd [17] was 2620 L. It also gave an AUC(0-inf) [17] of 62200 ng·h/mL and a half-life [17] of 93.6 h.
